Where two headings read alike, the source gives them in different places.
What was measured:
KRAS-G13D = KRAS-G13D (Homo sapiens, UniProt P01116, G13D); assay: SOS-catalyzed nucleotide exchange assay (Procedure A, TR-FRET), KRAS-G13D; assay type: biochemical
From the text: (§1) Procedure for SOS-Catalyzed Nucleotide Exchange Assay for KRAS-WT, G12C/D/V, G13D, HRAS, and NRAS (Procedure A)
(§2) Recombinant KRAS-G12C protein used in this assay has an additional triple mutation (C51S/C80L/C118S). Whereas KRAS-WT, G12D/V, G13D, HRAS and NRAS are in context of their WT protein sequence background. Specifically, the SOS-catalyzed nucleotide exchange assay utilizes a preformed TR-FRET complex containing a specific biotinylated RAS protein (KRAS-WT, G12C/V/D, G13D, HRAS, NRAS; described above) with Bodipy-GDP, and Terbium-streptavidin. Compounds are preincubated with this complex for 60 minutes. Subsequently, recombinant human SOS protein and unlabeled GTP are added to initiate the exchange reaction. Small molecule inhibitors stabilize the Bodipy-GDP complex whereas the untreated protein rapidly exchanges Bodipy-GDP for unlabeled GTP resulting in reduced TR-FRET signal.
(§3) To assemble the preformed TR-FRET complexes, each biotinylated RAS protein is diluted to 2 μM in an EDTA Buffer (20 mM HEPES pH 7.5, 50 mM sodium chloride, 10 mM EDTA, and 0.01% Tween) and incubated at room temperature for one hour. This mixture is then further diluted to 90 nM in an Assay Buffer (20 mM HEPES pH 7.5, 150 mM sodium chloride, 10 mM magnesium chloride, and 0.005% Tween) containing 15 nM of Terbium-Streptavidin (Invitrogen, catalog #PV3577) and 900 nM of Bodipy-GDP (Invitrogen, catalog #G22360) and incubated at room temperature for six hours. It should be noted that this preformed TR-FRET complex for each of the RAS protein were made ahead of time, aliquoted and stored at −80° C. until the day of the experiment.
(§4) Each test compound (10 mM stock in DMSO) is diluted in DMSO to make a final-10-point, 3-fold dilution and is acoustically dispensed into a 384-well assay plate (Corning, catalog #3820) using an Echo 550 (Labcyte). Each well of the assay plate receives 3 μL of a specific 3×RAS preformed TR-FRET complex and 3 μL of Assay Buffer and is incubated at room temperature for 60 minutes (preincubation time). Each well then receives 3 μL of 3×recombinant human SOS protein and GTP (Sigma, G8877) in Assay Buffer and is incubated at room temperature for 30 minutes (G13D), 60 minutes (KRAS WT/G12C/D, H/NRAS) or 90 minutes for G12V. The final reaction in each well of 9 μL consists of 3 mM GTP, specific Ras and SOS proteins in the following concentrations: KRAS-G12C/SOS=3 nM/40 nM, KRAS-WT and G12D/SOS=1 nM/40 nM, KRAS-G12V/SOS=1.25 nM/160 nM. KRAS-G13D/SOS=1.25 nM/0 nM, HRAS and NRAS=1.25 nM/40 nM.
(§5) The time-resolved fluorescence resonance energy transfer (TR-FRET) signal is measured on an Envision (PerkinElmer) plate reader: Excitation filter=340 nm; emission 1=495 nm; emission2=520 nm; dichroic mirror=D400/D505; delay time=[…]. The signal of each well is determined as the ratio of the emission at 520 nm to that at 495 nm. Percent effect of each well is determined after normalization to control wells containing DMSO (no effect) or a saturating concentration of inhibitor (max effect). The apparent effect as a function of compound concentration is fit to a four-parameter logistic equation.

[1] = target: KRAS-G12C (C51S/C80L/C118S) (Homo sapiens, UniProt P01116, C118S/C51S/C80L/G12C); assay: SOS-catalyzed nucleotide exchange assay (Procedure A, TR-FRET), KRAS-G12C; assay type: biochemical
KRAS-G12C (C51S/C80L/C118S), sequence (P01116 with tags, fused parts or gaps isoform P01116-2 G12C/C51S/C80L/C118S): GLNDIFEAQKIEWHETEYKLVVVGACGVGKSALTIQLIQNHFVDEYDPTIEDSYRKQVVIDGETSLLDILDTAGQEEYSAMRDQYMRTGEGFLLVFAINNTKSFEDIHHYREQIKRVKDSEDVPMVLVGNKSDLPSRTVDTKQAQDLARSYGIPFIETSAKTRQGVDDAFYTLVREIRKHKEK
From the text: as §1, §2, §3, §4, §5

AsPC-1 cells = assay: Cellular phospho-ERK assay, AsPC-1 cells (homozygous KRAS-G12D); assay type: cell-based; conditions: Homo sapiens, read-out: AsPC1 pERK IC50
In short: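 10k–15k cells/well, o/n attach; cpd 2 h, 37 °C, 10-pt 1:3 from 30 μM final; lyse with protease/phosphatase inhibitors 30 min RT; multiplex SureFire p-ERK + total ERK; IC50 via 4PL on ratio.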

KRAS-G12D = KRAS-G12D (Homo sapiens, UniProt P01116, G12D); assay: SOS-catalyzed nucleotide exchange assay (Procedure A, TR-FRET), KRAS-G12D; assay type: biochemical
KRAS-G12D, sequence (P01116 with tags, fused parts or gaps isoform P01116-2 G12D): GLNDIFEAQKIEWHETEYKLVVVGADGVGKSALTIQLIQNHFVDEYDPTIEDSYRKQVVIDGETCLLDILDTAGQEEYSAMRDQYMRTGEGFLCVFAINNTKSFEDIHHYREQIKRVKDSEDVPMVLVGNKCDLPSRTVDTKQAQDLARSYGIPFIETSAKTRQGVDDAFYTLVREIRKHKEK
In short: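 Signal ratio (520/495 nm, excitation 340 nm) reports Bodipy-GDP retention on biotinylated RAS after SOS-catalyzed exchange with 3 mM GTP. SOS was 40 nM, except 160 nM for G12V. Room-temperature exchange lasted 60 min (90 min for G12V), following a 60 min compound preincubation.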

KRAS-WT = KRAS-WT (Homo sapiens, UniProt P01116); assay: SOS-catalyzed nucleotide exchange assay (Procedure A, TR-FRET), KRAS-WT; assay type: biochemical
KRAS-WT, sequence (P01116 with tags, fused parts or gaps isoform P01116-2): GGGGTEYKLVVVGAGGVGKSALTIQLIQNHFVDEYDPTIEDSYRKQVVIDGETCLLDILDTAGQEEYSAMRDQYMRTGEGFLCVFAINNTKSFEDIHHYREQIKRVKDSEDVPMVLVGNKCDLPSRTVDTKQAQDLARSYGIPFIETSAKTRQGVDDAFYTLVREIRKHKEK
In short: (§6)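 TR-FRET readout (520/495 nm) of SOS-driven exchange of Bodipy-GDP for unlabeled GTP (3 mM) on biotinylated, Tb-streptavidin-bound RAS, after 60 min compound preincubation at room temperature. Exchange times and RAS/SOS levels: 60 min for WT (1/40 nM), G12C triple mutant (3/40 nM), NRAS (1.25/40 nM); 90 min for G12V (1.25/160 nM). Four-parameter logistic fits on normalized effect.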

KRAS-G12V = KRAS-G12V (Homo sapiens, UniProt P01116, G12V); assay: SOS-catalyzed nucleotide exchange assay (Procedure A, TR-FRET), KRAS-G12V; assay type: biochemical
KRAS-G12V, sequence (P01116 with tags, fused parts or gaps isoform P01116-2 G12V): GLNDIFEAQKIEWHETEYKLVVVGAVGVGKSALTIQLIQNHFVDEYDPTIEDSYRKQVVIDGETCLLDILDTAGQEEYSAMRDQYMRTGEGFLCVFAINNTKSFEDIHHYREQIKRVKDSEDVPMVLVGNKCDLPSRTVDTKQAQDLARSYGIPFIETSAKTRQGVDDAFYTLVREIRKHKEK
In short: as §6

[2] = nucleotide exchange, Procedure A, read-out: KRAS G13D GNE IC50
[3] = nucleotide exchange, Procedure A, read-out: KRAS G12C GNE IC50
[4] = ASPC1, 2 h, 2 hours compound incubation
[5] = nucleotide exchange, read-out: KRAS G12D GNE IC50
[6] = nucleotide exchange, read-out: KRAS WT GNE IC50
[7] = nucleotide exchange, read-out: KRAS G12V GNE IC50

KRAS-G13D, sequence (P01116 with tags, fused parts or gaps isoform P01116-2 G13D): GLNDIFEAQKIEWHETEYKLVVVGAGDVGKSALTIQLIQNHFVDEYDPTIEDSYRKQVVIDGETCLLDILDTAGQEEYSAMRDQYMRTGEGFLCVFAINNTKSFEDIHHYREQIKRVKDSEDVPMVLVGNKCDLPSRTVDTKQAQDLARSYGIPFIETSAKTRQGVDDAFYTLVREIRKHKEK

Compound | IC50 (KRAS-G13D; [2]) [nM] | IC50 [1, 3] [nM] | IC50 (AsPC-1 cells; [4]) [nM] | IC50 (KRAS-G12D; [5]) [nM] | IC50 (KRAS-WT; [6]) [nM] | IC50 (KRAS-G12V; [7]) [nM] | IC50 (AsPC-1 cells; ASPC1, 2 h, KRAS-G12D, 2 hours) [nM] | IC50 (KRAS-G13D) [nM] | IC50 [1] [nM] | IC50 (AsPC-1 cells; ASPC1, KRAS-G12D, 2 hours) [nM] | IC50 (KRAS-G12D; KRAS G12D GNE IC50, nucleotide exchange) [nM] | IC50 (KRAS-WT; KRAS WT GNE IC50, nucleotide exchange) [nM] | IC50 (KRAS-G12V; KRAS G12V GNE IC50, nucleotide exchange) [nM]
Cc1cc2[nH]ncc2c(-c2nccc3c2sc2nc(OC[C@@]45CCCN4C[C@H](F)C5)nc(NC4CCC4)c23)c1C(F)(F)F [Ex-191, N-cyclobutyl-2-(((2R,7aS)-2-fluorotetrahydro-1H-pyrrolizin-7a(5H)-yl)methoxy)-8-(6-methyl-5-(trifluoromethyl)-1H-indazol-4-yl)pyrido [4′,3′:4,5]thieno[2,3-d] pyrimidin-4-amine] | 3690 | 423 | 8560 | 11100 | 11100 | 5630 | – | – | – | – | – | – | –
Cc1cc2[nH]ncc2c(-c2nccc3c2sc2nc(OC[C@@]45CCCN4C[C@H](F)C5)nc(NC4CNC(=O)C4)c23)c1C(F)(F)F (stereo partly drawn) [Ex-192, 4-((2-(((2R,7aS)-2-fluoro-tetrahydro-1H-pyrrolizin-7a(5H)-yl)methoxy)-8-(6-methyl-5-(trifluorometh-yl)-1H-indazol-4-yl)pyrido [4′,3′:4,5]thieno[2,3-d]pyrimidin-4-yl)amino)-pyrrolidin-2-one] | 409 | 121 | 30000 | 283 | 418 | 192 | – | – | – | – | – | – | –
Cc1cc2[nH]ncc2c(-c2nccc3c2sc2nc(OC[C@@]45CCCN4C[C@H](F)C5)nc(N4CCCC5(CNC(=O)C5)C4)c23)c1C(F)(F)F (stereo partly drawn) [Ex-193, 7-(2-(((2R,7aS)-2-fluoro-tetrahydro-1H-pyrrolizin-7a(5H)-yl)methoxy)-8-(6-methyl-5-(trifluorometh-yl)-1H-indazol-4-yl)pyrido [4′,3′:4,5]thieno[2,3-d]pyrimidin-4-yl)-2,7-diaza-spiro[4.5]decan-3-one] | 970 | 418 | 18300 | 643 | 1200 | 476 | – | – | – | – | – | – | –
Cc1cc2[nH]ncc2c(-c2ncnc3c2sc2nc(OC[C@@]45CCCN4C[C@H](F)C5)nc(N4CCOC[C@@](C)(O)C4)c23)c1C(F)(F)F [Ex-276, (6S)-4-(7-(((2R,7aS)-2-fluorotetrahydro-1H-pyrrolizin-7a(5H)-yl)methoxy)-4-(6-methyl-5-(trifluoromethyl)-1H-indazol-4-yl)thieno[2,3-d:4,5-d′]dipyrimidin-9-yl)-6-methyl-1,4-oxazepan-6-ol] | 461 | 124 | – | 423 | 796 | 312 | 1810 | – | – | – | – | – | –
Cc1cc2[nH]ncc2c(-c2nncc3c2sc2nc(OC[C@@]45CCCN4C[C@H](F)C5)nc(N4CCOC[C@@](C)(O)C4)c23)c1C(F)(F)F [Ex-277, (6S)-4-(2-(((2R,7aS)-2-fluorotetrahydro-1H-pyrrolizin-7a(5H)-yl)methoxy)-8-(6-methyl-5-(trifluoromethyl)-1H-indazol-4-yl)pyrimido[5′,4′:4,5]thieno[2,3-d]pyridazin-4-yl)-6-methyl-1,4-oxazepan-6-ol] | 38 | 184 | – | 39.2 | 94.6 | 64.6 | 1100 | – | – | – | – | – | –
Cc1cc2[nH]ncc2c(-c2nccc3c2[se]c2nc(OC[C@@]45CCCN4C[C@H](F)C5)nc(N4CCOC[C@@](C)(O)C4)c23)c1C(F)(F)F [Ex-288, (6S)-4-(2-(((2R,7aS)-2-fluorotetrahydro-1H-pyrrolizin-7a(5H)-yl)methoxy)-8-(6-methyl-5-(trifluoromethyl)-1H-indazol-4-yl)pyrido[4′,3′:4,5]selenopheno[2,3-d]pyrimidin-4-yl)-6-methyl-1,4-oxazepan-6-ol] | – | – | – | – | – | – | – | 50.7 | 22 | 374 | 34.6 | 69.1 | 25.9
Cc1cc2[nH]ncc2c(-c2nccc3c2oc2nc(OC[C@]4(CN(C)C)CC4(F)F)nc(N4CCOC[C@@](C)(O)C4)c23)c1C(F)F [Ex-292, (6S)-4-(8-(5-(difluoromethyl)-6-methyl-1H-indazol-4-yl)-2-(((R)-1-((dimethylamino)methyl)-2,2-difluorocyclopropyl)meth-oxy)pyrido[4′,3′:4,5]furo[2,3-d]pyrimidin-4-yl)-6-methyl-1,4-oxazepan-6-ol] | 308 | 76.9 | – | 175 | 603 | 134 | 2320 | – | – | – | – | – | –
C=C(C)c1c(C)cc2[nH]ncc2c1-c1nccc2c1oc1nc(OC[C@]3(CN(C)C)CC3(F)F)nc(N3CCOC[C@@](C)(O)C3)c12 [Ex-293, (6S)-4-(2-(((R)-1-((dimethylamino)methyl)-2,2-difluorocyclopropyl)meth-oxy)-8-(6-methyl-5-(prop-1-en-2-yl)-1H-indazol-4-yl)pyrido[4′,3′:4,5]furo[2,3-d]pyrimidin-4-yl)-6-methyl-1,4-oxazepan-6-ol] | 296 | 136 | – | 149 | 455 | 203 | 1010 | – | – | – | – | – | –
CN(C)C[C@@]1(COc2nc(N3CCOC[C@@](C)(O)C3)c3c(n2)oc2c(-c4c(C5CC5)c(Cl)cc5[nH]ncc45)nccc23)CC1(F)F [Ex-294, (6S)-4-(8-(6-chloro-5-cyclopropyl-1H-indazol-4-yl)-2-(((R)-1-((dimethylamino)methyl)-2,2-difluorocyclopropyl)meth-oxy)pyrido[4′,3′:4,5]furo[2,3-d]pyrimidin-4-yl)-6-methyl-1,4-oxazepan-6-ol] | 106 | 30.1 | – | 113 | 262 | 125 | 295 | – | – | – | – | – | –
Cc1cc2[nH]ncc2c(-c2nccn3c2cc2nc(OC[C@]4(CN(C)C)CC4(F)F)nc(N4CCOC[C@@](C)(O)C4)c23)c1C1CC1 [Ex-296, (S)-4-(9-(5-cyclopropyl-6-methyl-1H-indazol-4-yl)-2-(((R)-1-((dimethylamino)meth-yl)-2,2-difluorocyclopropyl)methoxy)pyrazino [1′,2′:1,5]pyrrolo[3,2-d]pyrimidin-4-yl)-6-methyl-1,4-oxazepan-6-ol] | 80.1 | 43.9 | – | 48.7 | 167 | 101 | 316 | – | – | – | – | – | –

— patent US20260176289A1, “SMALL MOLECULE INHIBITORS OF KRAS PROTEINS” (Merck Sharp & Dohme LLC, priority 2022, published 2026)
